Test results as given in paper PMC11206297, “Targeting NAD Metabolism: Rational Design, Synthesis and In Vitro Evaluation of NAMPT/PARP1 Dual-Target Inhibitors as Anti-Breast Cancer Agents” (Molecules, 2024).
Read-outs that look alike come from different tables or passages of the source.

What was measured:
MDA-MB-468 = assay: MTT cell viability assay, MDA-MB-468; assay type: cell-based; conditions: Homo sapiens, 72 h, mean ± SEM, read-out: Cytotoxicity IC50 MDA-MB-468
Method: (§1) MDA-MB-468, MDA-MB-231, MCF-7, and MCF-10A cell lines were obtained from the National Collection of Authenticated Cell Culture, China. The cells were cultured in DMEM medium supplemented with 10% FBS and 1% penicillin/streptomycin, and maintained at 37 °C in a humidified atmosphere with 5% CO2.
(§2) Cell viability was assessed using the MTT assay. Cells were seeded at a density of 3 × 10^3 cells per well in a 96-well plate and treated with various concentrations (0.05, 0.2, 0.8, 3.2, 6.4, 12.8 µM) of the compounds for 72 h. After incubation, 100 µL of MTT solution (0.5 mg/mL) was added to each well and further incubated for 4 h. The resulting formazan crystals were dissolved in 150 µL of DMSO, and the absorbance was measured at 570 nm using a microplate reader.

MCF-10A = assay: MTT cell viability assay, MCF-10A normal breast epithelial cells; assay type: cell-based, human; conditions: for viability at 3 µM: Homo sapiens, 72 h, MCF-10A, mean ± SEM, read-out: Cell Survival Rate
Method: as §1, §2

PARP1 [1] = target: T1, PARP1 (Homo sapiens, UniProt P09874); assay: PARP1 enzymatic inhibition assay (ELISA, chemiluminescence); assay type: biochemical; conditions: for inhibition at 0.5 µM: duplicate, average, read-out: PARP1 Inhibition Rate; for IC50: mean ± SD of at least two independent experiments in duplicate
T1 sequence (P09874 whole entry): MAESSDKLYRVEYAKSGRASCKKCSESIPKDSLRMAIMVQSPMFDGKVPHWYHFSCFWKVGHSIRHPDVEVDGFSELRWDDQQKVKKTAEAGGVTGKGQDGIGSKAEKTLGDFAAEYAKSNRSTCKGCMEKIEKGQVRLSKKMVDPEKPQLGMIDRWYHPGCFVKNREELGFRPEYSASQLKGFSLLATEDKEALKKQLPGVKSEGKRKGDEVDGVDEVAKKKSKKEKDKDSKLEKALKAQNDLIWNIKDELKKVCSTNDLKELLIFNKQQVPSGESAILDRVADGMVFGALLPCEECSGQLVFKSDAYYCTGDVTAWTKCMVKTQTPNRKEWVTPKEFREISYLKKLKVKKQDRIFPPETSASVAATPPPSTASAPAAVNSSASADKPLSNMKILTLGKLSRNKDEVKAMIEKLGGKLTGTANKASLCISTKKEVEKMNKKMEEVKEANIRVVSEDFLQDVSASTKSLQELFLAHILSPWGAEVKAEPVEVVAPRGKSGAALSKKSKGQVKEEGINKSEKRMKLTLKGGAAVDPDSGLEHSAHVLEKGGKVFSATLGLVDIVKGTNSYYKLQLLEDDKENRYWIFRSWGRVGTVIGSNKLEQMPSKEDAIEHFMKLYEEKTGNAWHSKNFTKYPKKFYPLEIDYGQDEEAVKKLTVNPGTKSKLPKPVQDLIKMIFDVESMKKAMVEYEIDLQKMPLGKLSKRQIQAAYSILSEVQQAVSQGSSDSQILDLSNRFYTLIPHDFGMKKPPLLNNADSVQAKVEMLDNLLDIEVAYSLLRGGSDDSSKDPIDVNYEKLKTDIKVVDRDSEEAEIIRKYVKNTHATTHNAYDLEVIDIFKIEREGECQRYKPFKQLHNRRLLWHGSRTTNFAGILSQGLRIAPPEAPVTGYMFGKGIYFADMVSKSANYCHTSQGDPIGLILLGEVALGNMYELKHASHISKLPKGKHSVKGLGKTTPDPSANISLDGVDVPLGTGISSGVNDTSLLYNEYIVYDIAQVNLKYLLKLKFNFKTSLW

MDA-MB-231 = assay: MTT cell viability assay, MDA-MB-231; assay type: cell-based; conditions: Homo sapiens, 72 h, mean ± SEM, read-out: Cytotoxicity IC50 MDA-MB-231
Method: as §1, §2

MCF-7 = assay: MTT cell viability assay, MCF-7; assay type: cell-based; conditions: Homo sapiens, MCF7, 72 h, mean ± SEM, read-out: Cytotoxicity IC50 MCF-7
Method: as §1, §2

NAMPT = NAMPT (Homo sapiens, UniProt P43490); assay: NAMPT enzymatic inhibition assay (fluorescence, coupled NMNAT/alcohol dehydrogenase); assay type: biochemical; conditions: for NAMPT Inhibition Rate / inhibition at 0.1 µM: 0.1 μM, duplicate, average; for inhibition at 0.1 µM: read-out: NAMPT Inhibition Rate; for IC50: mean ± SD of at least two independent experiments in duplicate
Chain of NAMPT (P43490 whole entry): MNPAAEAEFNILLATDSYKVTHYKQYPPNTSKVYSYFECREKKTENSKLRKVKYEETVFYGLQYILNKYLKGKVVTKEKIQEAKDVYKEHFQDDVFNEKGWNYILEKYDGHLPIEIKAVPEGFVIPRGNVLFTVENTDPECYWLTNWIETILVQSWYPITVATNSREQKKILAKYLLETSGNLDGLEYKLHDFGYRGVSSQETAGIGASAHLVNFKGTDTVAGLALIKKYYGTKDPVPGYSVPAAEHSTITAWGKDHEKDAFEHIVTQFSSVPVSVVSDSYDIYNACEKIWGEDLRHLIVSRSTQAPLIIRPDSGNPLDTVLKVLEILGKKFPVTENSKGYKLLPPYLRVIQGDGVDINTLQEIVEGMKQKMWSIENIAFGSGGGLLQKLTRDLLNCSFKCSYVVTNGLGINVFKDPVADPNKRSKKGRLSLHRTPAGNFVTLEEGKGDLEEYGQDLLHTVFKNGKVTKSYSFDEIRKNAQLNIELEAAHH

MDA-MB-468 cells [2] = assay: Wound scratch cell migration assay; assay type: cell-based; conditions: 1 μM, up to 48 h
Method: MDA-MB-468 cells were plated in 6-well plates at a density of 5 × 10^5 cells/well and allowed to incubate overnight. A scratch was carefully generated in the cell monolayer using a 10 µL pipette tip. […] Images were acquired at 0, 12, 24, and 48 h time points to monitor and analyze the migration of cells over the specified intervals.

[3] = MTT cell viability assay, MCF-10A normal breast epithelial cells; assay type: cell-based, human; conditions: human, MCF-10A normal breast epithelial cells; MCF-10A; mean ± SEM; read-out: Cytotoxicity IC50
Method: as §1, §2

MDA-MB-468 cells [4] = assay: Cellular NAD level determination (NAD+/NADH WST-8 kit); assay type: cell-based; conditions: 24 h, 1 μM
Method: According to the manufacturer’s instructions, an NAD^+/NADH Assay kit with WST-8 (Beyotime, China) was used to measure the intracellular NAD level. The cells collected by centrifugation were added to NAD^+/NADH lysis buffer to obtain a cell lysate. After adding […] working solution, the lysate was incubated at 37 °C for 10 min, and then followed by the addition of color-developing solution. The total concentration of NADH and NAD can be measured by detecting the absorbance at 450 nm. To measure the concentration of NADH, the cell lysate was incubated at 60 °C for 30 min before adding […] working solution. Finally, the NAD content is obtained by the subtraction [NAD^+] = [NADH + NAD^+] − [NADH].

MDA-MB-468 cells [5] = assay: Western blot of BCL2; assay type: cell-based; conditions: 24 h, 1 μM
Method: (§3) Cells were then lysed using RIPA buffer supplemented with protease and phosphatase inhibitors. Protein concentrations were determined using the BCA Protein Assay Kit (Thermo Fisher Scientific^TM, Waltham, MA, USA). Equal amounts of protein (20–30 µg) were separated by SDS-polyacrylamide gel electrophoresis and transferred to a polyvinylidene fluoride (PVDF) membrane. The membrane was blocked with 5% milk in PBS before incubation with primary antibodies. Primary antibodies against γ-H2AX (Cell Signaling Technology™, Danvers, MA, USA), BCL2 (Abcam™, Cambridge, UK), and β-actin (Proteintech™, Rosemont, IL, USA) were used. After overnight incubation at 4 °C, membranes were washed and incubated with HRP-conjugated secondary antibodies for 1 h. Protein bands were visualized using ECL reagents (Labgic Technology^TM, Beijing, China).

PARP1 [6] = target: T1, PARP1; design: method as in PMID 18579376, PMID 18800822, PMID 24388690, PMID 28340412, PMID 36183505; conditions: in figure; cited from earlier work
MDA-MB-468 cells [7] = assay: Western blot of γ-H2AX; assay type: cell-based; conditions: 24 h, 1 μM
Method: as §3

MDA-MB-468 cells [8] = assay: NMN rescue of cytotoxicity; assay type: cell-based; conditions: 200 μM NMN
From the text: NMN is the direct product of the NAMPT-catalyzed reaction. Excessive NMN can counteract the inhibitory effect of NAMPT inhibition. […] The reversal of DDY02’s efficacy by NMN underscores the compound’s mechanism of action and confirms the critical role of NAMPT inhibition in mediating its therapeutic effects. This observation also emphasizes the potential of NMN as a modulator in therapeutic scenarios involving NAMPT-targeted treatments.

Row | inhibition at 0.5 µM (PARP1 [1]) | NAMPT Inhibition Rate (NAMPT) | inhibition at 0.1 µM (NAMPT) | melting point | IC50 (PARP1 [1]) | IC50 (NAMPT) | fold decrease in inhibitory capacity against PARP1 compared to Olaparib (PARP1 [1]; ratio of IC50 values) | Structure (SMILES) | IC50 (MDA-MB-468) | viability at 3 µM (MCF-10A) | IC50 (MDA-MB-231) | IC50 (MCF-7) | inhibitory effect on cell migration (MDA-MB-468 cells [2]) | IC50 at 72 h [3] | selectivity of cytotoxic activity between breast cancer cells and normal cells (MCF-10A) (MCF-10A; comparison of Tables 2 and 3) | cellular NAD levels (MDA-MB-468 cells [4]) | BCL2 expression (MDA-MB-468 cells [5]) | IC50 (PARP1 [6]) | accumulation of γ-H2AX (MDA-MB-468 cells [7]) | cytotoxic effects after preincubation with NMN (MDA-MB-468 cells [8])
1 | 70% | 84% | 84 to 86% | 125 to 126 °C |  |  |  | NC(=O)c1ccccc1OCc1ccc(F)c(C(=O)N2CCN(S(=O)(=O)c3ccc(NC(=S)NCc4cccnc4)cc3)CC2)c1 [DDY04, 2-((4-Fluoro-3-(4-((4-(3-(pyridin-3-ylmethyl)thioureido)phenyl)sulfonyl)piperazine-1-carbonyl)benzyl)oxy)benzamide] | 14.1 ± 0.3 µM | 98.4 ± 1.74% | 13.5 ± 0.66 µM | 13.4 ± 2.41 µM |  |  |  |  |  |  |  | 
2 |  |  |  | 120 to 121 °C | 0.025 ± 0.007 µM | 0.055 ± 0.019 µM |  | O=C(NCc1cccnc1)Nc1ccc(S(=O)(=O)N2CCN(C(=O)CCc3nc4ccccc4c(=O)[nH]3)CC2)cc1 [DDY03, 1-(4-((4-(3-(4-Oxo-3,4-dihydroquinazolin-2-yl)propanoyl)piperazin-1-yl)sulfonyl)phenyl)-3-(pyridin-3-ylmethyl)urea] | 8.17 ± 0.31 µM | 80.7 ± 1.5% | 10.9 ± 0.68 µM | 11.2 ± 0.79 µM |  |  |  |  |  |  |  | 
3 |  |  | 83% | 189 to 190 °C | 0.009 ± 0.002 µM |  | 4.5 fold | O=C(c1cc(Cc2n[nH]c(=O)c3ccccc23)ccc1F)N1CCN(S(=O)(=O)c2ccc(NC(=S)NCc3cccnc3)cc2)CC1 [DDY01, 1-(4-((4-(2-Fluoro-5-((4-oxo-3,4-dihydrophthalazin-1-yl)methyl)benzoyl)piperazin-1-yl)sulfonyl)phenyl)-3-(pyridin-3-ylmethyl)thiourea] | 5.09 ± 0.09 µM | 67.1 ± 1.73% | 6.17 ± 0.27 µM | 8.48 ± 0.18 µM |  |  |  |  |  |  |  | 
4 | 78% |  | 86% | 147 to 148 °C |  |  |  | NC(=O)c1cc(F)ccc1OCc1cccc(C(=O)N2CCN(S(=O)(=O)c3ccc(NC(=O)NCc4cccnc4)cc3)CC2)c1 [DDY09, 5-Fluoro-2-((3-(4-((4-(3-(pyridin-3-ylmethyl)ureido)phenyl)sulfonyl)piperazine-1-carbonyl)benzyl)oxy)benzamide] | 6.98 ± 0.57 µM | 66.9 ± 2.45% | 8.7 ± 0.24 µM | 11 ± 0.82 µM |  |  |  |  |  |  |  | 
5 |  | 86% | 84 to 86% | 119 to 120 °C |  |  |  | NC(=O)c1ccccc1OCc1ccc(F)c(C(=O)N2CCN(S(=O)(=O)c3ccc(NC(=O)NCc4cccnc4)cc3)CC2)c1 [DDY05, 2-((4-Fluoro-3-(4-((4-(3-(pyridin-3-ylmethyl)ureido)phenyl)sulfonyl)piperazine-1-carbonyl)benzyl)oxy)benzamide] | 8.02 ± 0.74 µM | 88.7 ± 2.41% | 10.2 ± 0.29 µM | > 20 µM |  |  |  |  |  |  |  | 
6 | 89% |  | 48% |  |  |  |  | NC(=O)c1ccccc1OCc1ccc(F)c(C(=O)N2CCN(S(=O)(=O)Cc3ccc(NC(=O)NCc4cccnc4)cc3)CC2)c1 [DDY06, 2-((4-Fluoro-3-(4-((4-(3-(pyridin-3-ylmethyl)ureido)benzyl)sulfonyl)piperazine-1-carbonyl)benzyl)oxy)benzamide] | 17.2 ± 1.57 µM | 69.5 ± 2.56% | 15.4 ± 2.15 µM | 7.95 ± 0.34 µM |  |  |  |  |  |  |  | 
7 | 92% |  | 84% | 122 to 123 °C |  |  |  | NC(=O)c1cc(F)ccc1OCc1ccc(F)c(C(=O)N2CCN(S(=O)(=O)c3ccc(NC(=O)NCc4cccnc4)cc3)CC2)c1 [DDY07, 5-Fluoro-2-((4-fluoro-3-(4-((4-(3-(pyridin-3-ylmethyl)ureido)phenyl)sulfonyl)piperazine-1-carbonyl)benzyl)oxy)benzamide] | 7.43 ± 0.23 µM | 70.73 ± 0.07% | 8.1 ± 0.71 µM | 13.5 ± 0.16 µM |  |  |  |  |  |  |  | 
8 |  |  |  | > 250 °C | 0.014 ± 0.003 µM | 0.034 ± 0.009 µM |  | NC(=O)c1cccc2[nH]c(C(=O)N3CCN(S(=O)(=O)c4ccc(NC(=O)NCc5cccnc5)cc4)CC3)nc12 [DDY11, 2-(4-((4-(3-(Pyridin-3-ylmethyl)ureido)phenyl)sulfonyl)piperazine-1-carbonyl)-1H-benzo[d]imidazole-4-carboxamide] | 12.2 ± 1.39 µM | 82.15 ± 0.21% | 13.8 ± 0.33 µM | 7.39 ± 0.34 µM |  |  |  |  |  |  |  | 
9 |  |  |  |  |  |  |  | O=C(c1cc(Cc2n[nH]c(=O)c3ccccc23)ccc1F)N1CCN(C(=O)C2CC2)CC1 [Olaparib, reference compound] | 6.19 ± 0.09 µM | 91.8 ± 1.78% | 6.74 ± 0.08 µM | 8.68 ± 0.81 µM | most robust inhibitory effect | 9.61 ± 0.77 µM | no selectivity | did not alter intracellular NAD levels compared to the control | significantly inhibited the expression of the BCL2 protein |  |  | 
10 | 69% |  | 80% | 202 to 203 °C |  |  |  | NC(=O)c1ccccc1OCc1cccc(C(=O)N2CCN(S(=O)(=O)c3ccc(NC(=O)NCc4cccnc4)cc3)CC2)c1 [DDY08, 2-((3-(4-((4-(3-(Pyridin-3-ylmethyl)ureido)phenyl)sulfonyl)piperazine-1-carbonyl)benzyl)oxy)benzamide] | 12.9 ± 1.69 µM | 72.6 ± 3.46% | 11.1 ± 0.19 µM | 9.18 ± 0.44 µM |  |  |  |  |  |  |  | 
11 |  |  |  |  |  |  |  | NC(=O)c1ccccc1OCc1ccc(F)c(C(=O)N2CCN(C(=O)C3CCCC3)CC2)c1 [Compound 16] |  |  |  |  |  |  |  |  |  | 0.061 µM |  | 
12 |  |  |  |  |  |  |  | O=C(/C=C/c1cccnc1)NCCCCC1CCN(C(=O)c2ccccc2)CC1 [FK866, reference compound] | 4.01 ± 0.21 µM | 65.49 ± 0.41% | 3.83 ± 0.12 µM | 5.8 ± 0.86 µM | weakest inhibitory activity | 4.41 ± 0.22 µM |  |  | no effect on the expression of BCL2 |  | promoted the accumulation of γ-H2AX | reversed the cytotoxic effects
13 | 55% |  | 7% | > 250 °C |  |  |  | NC(=O)c1cccc2[nH]c(C(=O)N3CCN(S(=O)(=O)c4ccc(NC(=S)NCc5cccnc5)cc4)CC3)nc12 [DDY10, 2-(4-((4-(3-(Pyridin-3-ylmethyl)thioureido)phenyl)sulfonyl)piperazine-1-carbonyl)-1H-benzo[d]imidazole-4-carboxamide] | 6.74 ± 0.16 µM | 96.9 ± 1.71% | 4.45 ± 0.29 µM | 8.83 ± 0.31 µM |  |  |  |  |  |  |  | 
